Reference: patent US20250228858A1, “ANTI-CANCER COMBINATION THERAPY” (Boehringer Ingelheim International GmbH, priority 2023, published 2025)
*1 amine or outer side, *2 acyl side, *3 side chain or, on linkers, in order; H or OH if unused. Where a SMILES comes first, the peptide text is derived from it. [ ]: non-standard residue; d: D form. The star is where a group is joined. Exatecan = CC[C@@]1(O)C(=O)OCc2c1cc1n(c2=O)Cc2c-1nc1cc(F)c(C)c3c1c2[C@@H](N*)CC3; Hexanoyl(6-maleimido) = O=C1C=CC(=O)N1CCCCCC(=O)*; NHCH2OCH2CO = O=C(COCN[*:1])[*:2]

What was measured:
[1] = system: HER2-overexpressing human breast cancer cell line SUM190PT; assay type: in vivo
Procedure: The study is performed in human breast cancer cell line SUM190PT grown as subcutaneous xenografts in NMRI-Foxn1^nu mice. Day 1 was the first day, day 21 the last day of treatment and final day of analysis.
Cells are obtained and cultured as described in Example 8 (see paragraph 8.1.2).
Capecitabine can be purchased from Roche Pharma AG. Capecitabine is suspended with 0.5% Natrosol and administered intragastrally with a volume of 10 ml/kg.
Tumor volumes and side effects are monitored as described in Example 1 (see paragraph 1.1.6), except that control animals are sacrificed when the median tumor volume of the group reaches a size of approximately 540 mm^3.
(§1) The statistical evaluation of the tumor volume and the body weight is conducted on day 21 (last day of the study). Apart from this, statistical analysis was performed as described in Example 1 (see paragraph 1.1.7), with no evaluation of tumor growth after stop of treatment.

[2] = system: T-DXd-resistant NCI-N87 cells; assay: Proliferation assay (CellTiter Glo), T-DXd resistant NCI-N87 cells; assay type: cell-based, human; conditions: 5 days of incubation, in vitro
Procedure: (§2) Per well, 1000 cells are seeded in 40 μL medium in white, sterile 384-well culture plates (TC-treated; PerkinElmer #6007680) and incubated overnight in a humidified incubator at 37° C. and 5% CO2. 0.1% DMSO-control or serial compound dilution in triplicates are added. […] After 5 days of incubation with test compounds, the cells plates are measured upon addition of CellTiter Glo Luminescent Cell Viability Reagent (Promega, #G9243) to assess cell viability. The plates are placed on a shaker for five minutes and additionally incubated for 10 minutes at room temperature to induce cell lysis and to stabilize the luminescent signal. The luminescent signal of each well is measured in an EnSpire Multilabel Plate Reader 658 (PerkinElmer). The dose response curves are fit and visualized using Boehringer Ingelheim's proprietary software MegaLab and PRISM (GraphPad Inc.).

parental NCI-N87 cells = assay: Proliferation assay (CellTiter Glo), parental NCI-N87 cells; assay type: cell-based, human; conditions: 5 days of incubation, in vitro
Procedure: as §2

[3] = system: HER2-overexpressing human NSCLC cell line Calu-3; assay: Calu-3 subcutaneous xenograft, zongertinib with trastuzumab and/or pertuzumab; assay type: in vivo, CB-17/Icr-Prkdc^scid mice; conditions: day 42, zongertinib 20 mg/kg qdx42 p.o., trastuzumab 20 mg/kg q7dx6 i.p., pertuzumab 20 mg/kg q7dx6 i.p., alone or combined
Procedure: The study is performed in human NSCLC cell line Calu-3 grown as subcutaneous xenografts in CB-17/Icr-Prkdc^scid mice. Day 1 was the first day, day 42 the last day of treatment and final day of analysis.
Calu-3 is a HER2-overexpressing human NSCLC cell line that can be obtained from ATCC (lot 614492062). Cells are cultured in T75, T175 and 5-Layer tissue culture flasks at 37° C. and 5% CO2. The medium used is EMEM (Lonza BE12-662F) supplemented with 10% FCS (Cytiva HyClone Characterized FBS, SH30084.03n), 2 mM Glutamax (Gibco 35050-038), 0.5 mM sodium pyruvate (Sigma S8636). Cultures are split once weekly with a ratio of 1:1.5-1:2.
To establish subcutaneous tumors, Calu-3 cells are harvested by centrifugation, washed and resuspended in PBS+5% FCS at 7×10^7 cells/ml. 50 μl cell suspension containing 3.5×10^6 cells is injected subcutaneously into the right flank of mice (1 site per mouse).
Mice in the control group are treated with vehicle, i.e.: • (i) 0.5% Natrosol, administered once daily for the duration of the treatment intragastrally by gavage needle with a volume of 10 ml/kg body weight; and • (ii) saline (0.9%), administered once every week intraperitoneally with a volume of 10 ml/kg.
Tumor volumes and side effects are monitored as described in Example 1 (see paragraph 1.1.6).
as §1

Question: For `CCCCCOC(=O)Nc1nc(=O)n([C@@H]2O[C@H](C)[C@@H](O)[C@H]2O)cc1F` [Capecitabine, capecitabine, reference compound], which “Regressions >30%” value ([1]; day 21, tumors regressed/total (partial response), zongertinib 10 mg/kg qdx21 p.o., capecitabine 400 mg/kg qdx21 p.o., trastuzumab 20 mg/kg q7dx3 i.p., alone or combined) is on record?
Answer: Its value is 0/8.

Question: And the TGI ([1]; day 21, zongertinib 10 mg/kg qdx21 p.o., capecitabine 400 mg/kg qdx21 p.o., trastuzumab 20 mg/kg q7dx3 i.p., alone or combined)?
Answer: The TGI was 106%.

Question: What about the “effect on tumor growth (median tumor volumes over time)” value ([1]; zongertinib 10 mg/kg qdx21, capecitabine 400 mg/kg qdx21, trastuzumab 20 mg/kg q7dx3, alone or triple combination) of the same compound?
Answer: Its value is “delayed tumor growth but did not shrink tumors”.

Question: Which results are given for `CC[C@@]1(O)C(=O)OCc2c1cc1n(c2=O)Cc2c-1nc1cc(F)c(C)c3c1c2[C@@H](NC(=O)COCNC(=O)CNC(=O)[C@H](Cc1ccccc1)NC(=O)CNC(=O)CNC(=O)CCCCCN1C(=O)C=CC1=O)CC3` [deruxtecan, reference compound] ({Hexanoyl(6-maleimido)}-GGFG[NHCH2OCH2CO]-Exatecan)?
Answer: sensitivity (dose response, cell viability) [2]: resistant; sensitivity (dose response, cell viability) (parental NCI-N87 cells): sensitive

Question: For pertuzumab [reference compound], which “Regressions >30%” value ([3]; tumors regressed/total (partial response)) is on record?
Answer: Its value is 0/10.

Question: What about the TGI [3] of the same compound?
Answer: Its TGI is 89%.
